Laboratory results as given in patent US20220023281A1, “HETEROCYCLIC SPIRO-COMPOUNDS AS AM2 RECEPTOR INHIBITORS” (THE UNIVERSITY OF SHEFFIELD, priority 2018, published 2022).

target: T1, AM2 receptor-expressing cells (1321N1 cells transfected with CALCRL+RAMP3) (Homo sapiens, UniProt O60896+Q16602); assay: AM2 receptor inhibition, LANCE cAMP agonist-antagonist competition assay (AM2 D2 protocol); assay type: cell-based; conditions: inhibition of AM induced cAMP in 1321N1 cells expressing CALCRL+RAMP3; read-out: AM2 D2 protocol: pIC50 (converted)
T1 construct: host or cells: 1321N1 cells
Procedure: Compounds were assessed for their ability to inhibit ligand-induced elevations of cAMP, using the Perkin Elmer LANCE cAMP assay using commercially-available cells expressing a specific receptor of interest using the following general procedure:
Compounds were prepared in dimethyl sulfoxide (DMSO—99.9% pure) (Sigma Aldrich, Cat #: D4540) added to powder stocks to produce a 20 mM solution (100% DMSO) that was sonicated at 37° C. for 10 minutes to fully dissolve the compounds. The 20 mM stocks were diluted further in DMSO to produce a 2 mM solution that was sonicated at 37° C. for 10 minutes. 2 mM stocks were dissolved in assay/stimulation buffer to produce a 400 μM solution that was sonicated at 37° C. for 10 minutes for all cAMP assays. All stocks were stored at −20° C. Then serial dilution (Dilution factor: 10) was performed to achieve the desire experimental concentrations.
Competition assays were performed according to the manufactures instructions using LANCE® TR-FRET cAMP assay kit (Perkin Elmer, Cat #: AD0264). Serial dilutions (3 μl/well) of the molecules were plated in a 384-well OptiPlate (Perkin Elmer, Cat #: 6007299) in duplicates. Appropriate controls (100% stimulation: Forskolin and 0% stimulation: Vehicle control) (6 μl/well) were included in each plate for data normalization. Following the compound addition, 6 μl of G-protein coupled receptor overexpressing cells/Alexa Fluor antibody solution (1:100 dilution) was added in each well at a desired density of 2500 cells/well. The overexpressing cell lines were purchased from DiscoveRx, Birmingham, UK. After spinning the plate at 1000 rpm for 1 minute and vortexing briefly, the cells were pre-incubated with the compounds for 30 minutes at room temperature (covered). Then 3 μl of the equivalent peptide ligand (EC50 dose) was added to all the wells except vehicle and forskolin controls. The plate were then spun down at 1000 rpm for 1 minute and once finished they were vortexed briefly and covered. Cells were stimulated in the presence of the ligands for 15 minutes at room temperature. After stimulation 12 μl of detection mix (Europium-Chelate streptavidin/biotinylated cAMP tracer solution) was added to all wells and incubated for 60 minutes at room temperature. The plate was then read on the Enspire multimode Plate reader (Perkin Elmer), at; 320/340 nm excitation and 615/665 nm emission was recorded.
Assay/Stimulation Buffer (30 mL)—pH 7.4 • 28 mL Hank's Balanced salt solution (+MgCl2, +CaCl2))—(Thermo Fisher Cat #:14170112) • 150 μl HEPES (1M)—(Thermo Fisher Cat #:15630080) • 400 μl Stabilizer (DTPA) Purified BSA (7.5%)—(Perkin Elmer, Cat #: CR84-100) • 60 μl IBMX (250 mM)—(Sigma Aldrich, Cat #: 15879)
The ability of a compound to inhibit the AM induced cAMP activation in AM2 receptor-expressing cells (1321N1 cells transfected with CALCRL+RAMP3, sourced from DiscoverX catalogue number 95-0169C6) was assessed using the protocol above.

T1 sequence (Q16602 23-461): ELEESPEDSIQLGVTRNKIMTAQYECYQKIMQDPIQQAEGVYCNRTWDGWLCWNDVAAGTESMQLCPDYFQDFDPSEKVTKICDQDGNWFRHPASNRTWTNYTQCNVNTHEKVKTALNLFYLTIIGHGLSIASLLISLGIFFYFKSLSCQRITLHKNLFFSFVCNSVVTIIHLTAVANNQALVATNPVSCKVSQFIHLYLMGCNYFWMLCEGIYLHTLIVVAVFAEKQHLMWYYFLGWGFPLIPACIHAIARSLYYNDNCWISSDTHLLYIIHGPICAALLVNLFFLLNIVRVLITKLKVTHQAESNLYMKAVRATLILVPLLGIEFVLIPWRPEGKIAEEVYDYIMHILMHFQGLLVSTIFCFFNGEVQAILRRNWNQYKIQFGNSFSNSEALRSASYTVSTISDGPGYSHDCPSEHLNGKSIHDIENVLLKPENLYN
T1 sequence (O60896 24-148): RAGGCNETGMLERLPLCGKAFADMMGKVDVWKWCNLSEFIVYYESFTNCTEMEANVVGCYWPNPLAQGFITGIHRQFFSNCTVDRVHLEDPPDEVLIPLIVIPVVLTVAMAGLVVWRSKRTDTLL

SMILES	IC50 [µM]
O=C(CN(C(=O)N1CCCC1)[C@H]1CCCNC1)Nc1ccc2c(c1)C[C@@]1(C2)C(=O)Nc2ncccc21 [Example 22, N-(2-Oxo-2-(((R)-2′-oxo-1,1′,2′,3-tetrahydrospiro[indene-2,3′-pyrrolo [2,3-b]pyridin]-5-yl)amino)ethyl)-N—((S)-piperidin-3-yl)pyrrolidine-1-carboxamide]	0.245
CCC1(C(=O)N(CC(=O)Nc2ccc3c(c2)C[C@@]2(C3)C(=O)Nc3ncccc32)[C@H]2CCCNC2)CCOCC1 [Example 14, 4-Ethyl-N-(2-oxo-2-(((R)-2′-oxo-1,1′,2′,3-tetrahydrospiro[indene-2,3′-pyrrolo[2,3-b]pyridin]-5-yl)amino)ethyl)-N—((S)-piperidin-3-yl)tetrahydro-2H-pyran-4-carboxamide]	0.288
CC(C)(C#N)C(=O)N(CC(=O)Nc1ccc2c(c1)C[C@@]1(C2)C(=O)Nc2ncccc21)[C@H]1CCCNC1 [Example 10, 2-Cyano-2-methyl-N-(2-oxo-2-(((R)-2′-oxo-1,1′,2′,3-tetrahydrospiro[indene-2,3′-pyrrolo[2,3-b]pyridin]-5-yl)amino)ethyl)-N—((S)-piperidin-3-yl)propenamide]	0.0501
O=C(CN(C(=O)C1(C(F)(F)F)CCC1)[C@H]1CCCNC1)Nc1ccc2c(c1)C[C@@]1(C2)C(=O)Nc2ncccc21 [Example 12, N-(2-Oxo-2-(((R)-2′-oxo-1,1′,2′,3-tetrahydrospiro[indene-2,3′-pyrrolo[2,3-b]pyridin]-5-yl)amino)ethyl)-N—((S)-piperidin-3-yl)-1-(trifluoromethyl)cyclobutanecarboxamide]	0.263
CC1(C(=O)N(CC(=O)Nc2ccc3c(c2)C[C@@]2(C3)C(=O)Nc3ncccc32)[C@H]2CCCNC2)CCN(C(=O)c2ccccn2)CC1 [Example 17, 4-Methyl-N-(2-oxo-2-(((R)-2′-oxo-1,1′,2′,3-tetrahydrospiro[indene-2,3′-pyrrolo[2,3-b]pyridin]-5-yl)amino)ethyl)-1-picolinoyl-N—((S)-piperidin-3-yl)piperidine-4-carboxamide]	0.0186
CC(C)(C)C(=O)N(CC(=O)Nc1ccc2c(c1)C[C@@]1(C2)C(=O)Nc2ncccc21)C1CCC2CCC1N2 (single isomer, unassigned) [Example 31A]	0.316
CC1(C(=O)N(CC(=O)Nc2ccc3c(c2)C[C@@]2(C3)C(=O)Nc3ncccc32)[C@H]2CCCNC2)CCC1 [Example 8, 1-Methyl-N-(2-oxo-2-(((R)-2′-oxo-1,1′,2′,3-tetrahydrospiro[indene-2,3′-pyrrolo[2,3-b]pyridin]-5-yl)amino)ethyl)-N—((S)-piperidin-3-yl)cyclobutanecarboxamide]	0.145

The remaining lines, values ahead:

IC50 [µM]	SMILES
0.0513	C[C@@H]1CNC[C@@H](N(CC(=O)Nc2ccc3c(c2)C[C@@]2(C3)C(=O)Nc3ncccc32)C(=O)C(C)(C)C)C1 (relative stereo) [Example 27, N-((3S*,5S*)-5-Methylpiperidin-3-yl)-N-(2-oxo-2-(((R)-2′-oxo-1,1′,2′,3-tetrahydrospiro[indene-2,3′-pyrrolo[2,3-b]pyridin]-5-yl)amino)ethyl)pivalamide]
0.132	CC(C)(C)C(=O)N(CC(=O)Nc1ccc2c(c1)CC1(C2)C(=O)Nc2ncccc21)[C@H]1CCNC1 (stereo partly drawn) [Example 24, N-(2-Oxo-2-((2′-oxo-1,1′,2′,3-tetrahydrospiro[indene-2,3′-pyrrolo[2,3-b]pyridin]-5-yl)amino)ethyl)-N—((S)-pyrrolidin-3-yl)pivalamide]
0.00302	CC(C)(C)C(=O)N(CC(=O)Nc1ccc2c(c1)C[C@@]1(C2)C(=O)Nc2ncccc21)[C@H]1CCCNC1 [Example 2, N-(2-Oxo-2-(((R)-2′-oxo-1,1′,2′,3-tetrahydrospiro[indene-2,3′-pyrrolo[2,3-b]pyridin]-5-yl)amino)ethyl)-N—((S)-piperidin-3-yl)pivalamide]
0.741	CC(C)(C)C(=O)N(CC(=O)Nc1ccc2c(c1)C[C@@]1(C2)C(=O)Nc2ncccc21)[C@@H]1CCCNC1 [Example 3, N-(2-Oxo-2-(((R)-2′-oxo-1,1′,2′,3-tetrahydrospiro[indene-2,3′-pyrrolo[2,3-b]pyridin]-5-yl)amino)ethyl)-N—((R)-piperidin-3-yl)pivalamide]
0.129	CC(C)(C)C(=O)N(CC(=O)Nc1ccc2c(c1)CC1(C2)C(=O)Nc2ncccc21)C1CCCCNC1 (stereo not shown) [Example 25, N-(Azepan-3-yl)-N-(2-oxo-2-((2′-oxo-1,1′,2′,3-tetrahydrospiro[indene-2,3′-pyrrolo[2,3-b]pyridin]-5-yl)amino)ethyl)pivalamide]
0.186	C[C@H]1CC[C@H](N(CC(=O)Nc2ccc3c(c2)C[C@@]2(C3)C(=O)Nc3ncccc32)C(=O)C(C)(C)C)CN1 (relative stereo) [Example 28, N-((3S*,6S*)-6-Methylpiperidin-3-yl)-N-(2-oxo-2-(((R)-2′-oxo-1,1′,2′,3-tetrahydrospiro[indene-3′-pyrrolo[2,3-b]pyridin]-5-yl)amino)ethyl)pivalamide]
